Our source for the GI50 and TGI values is PubChem BioAssay (NCI).

Some test systems named below: CCRF-CEM leukemia; HOP-92 NSCLC; NCI-H23 lung; NCI-H522 lung; OVCAR-8 ovarian; SF-295 CNS; SK-MEL-2 melanoma; SW-620 colon; U251 CNS; SNB-75 CNS.
Experiment in all cases: growth of human tumour cells (NCI), 48 h

Several values for one entry are separate records, joined by “and”; a condition that tells them apart may be missing. Identical values can stand only once.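 Cultured in 96-well plates, cells were exposed to test compound for 48 hours across five concentrations. GI50 = concentration required for 50% inhibition of growth. TGI: total growth inhibition.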

With `CC(=O)Oc1cc(C)ccc1[C@]1(C)CC[C@H](C)/C1=C\Br`, the GI50 is 2.75 µM in the assay on CCRF-CEM leukemia; 2.03 µM with HOP-92 NSCLC; 6.54 µM in the assay with NCI-H23 lung; 5.28 µM with NCI-H522 lung; 5.05 µM with OVCAR-8 ovarian; 3.96 µM in the assay with SF-295 CNS. The figures for the GI50 with SK-MEL-2 melanoma, with SW-620 colon and in the assay on U251 CNS were 7.21 µM, 5.31 µM and 4.92 µM, respectively. The TGI in the assay with CCRF-CEM leukemia amounted to 10.1 µM; in the assay with HOP-92 NSCLC, 12.9 µM; with NCI-H23 lung, 20.3 µM; in the assay on NCI-H522 lung, 22.7 µM; in the assay on OVCAR-8 ovarian, 21 µM; with SF-295 CNS it was 13.2 µM. Moreover, the TGI with SK-MEL-2 melanoma worked out at 24.7 µM; in the assay on SW-620 colon, 17.1 µM; in the assay on U251 CNS, 16.6 µM.

As for `COc1ccc(/C=C/c2cc(OC)c(OC)c(OC)c2)cc1NC(=O)/C=C/c1ccc(F)cc1`, the GI50 with CCRF-CEM leukemia is 2.99 µM; in the assay on HOP-92 NSCLC, 4.36 µM; with NCI-H23 lung, 3.41 µM; in the assay with NCI-H522 lung it was 1.87 µM; in the assay on OVCAR-8 ovarian, 3.37 µM; with SF-295 CNS, 1.57 µM. The GI50 is 2.85 µM in the assay on SW-620 colon and 3.17 µM in the assay on U251 CNS. Moreover, the TGI was greater than 31.1 µM with CCRF-CEM leukemia; greater than 100 µM with HOP-92 NSCLC; greater than 100 µM with NCI-H23 lung; 5.73 µM in the assay on NCI-H522 lung; greater than 100 µM with OVCAR-8 ovarian; 64.4 µM in the assay with SF-295 CNS. The TGI with SW-620 colon and in the assay on U251 CNS was greater than 100 µM each time.

For `Cc1cc2nc3c(=O)n(C)c(=O)nc-3n(-c3ccc(Cl)cc3)c2cc1C`, the TGI with CCRF-CEM leukemia turned out to be 45.4 µM; in the assay with HOP-92 NSCLC, 34 µM; in the assay with NCI-H23 lung it was 26.2 µM; in the assay with OVCAR-8 ovarian, 43.7 µM; in the assay on SF-295 CNS, 26.1 µM; in the assay with SK-MEL-2 melanoma, 34.9 µM. In addition, the TGI in the assay on SNB-75 CNS came out at 24.4 µM; in the assay with SW-620 colon, 20.5 µM; in the assay with U251 CNS, 29.9 µM.

`COP1(=O)CC2C(Cl)(Cl)C2(C)C1` (configuration not stated): the TGI in the assay with CCRF-CEM leukemia, in the assay with NCI-H23 lung, in the assay with NCI-H522 lung, in the assay on OVCAR-8 ovarian, with SF-295 CNS and with SNB-75 CNS was greater than 100 µM each time. Further, the TGI in the assay with SW-620 colon and with U251 CNS was greater than 100 µM each time.

With `C[CH2][Sn]1([CH2]C)[O]C(=O)[O][Sn]([CH2]C)([CH2]C)[O]1`, the GI50 in the assay with CCRF-CEM leukemia was 5.39 µM; in the assay with HOP-92 NSCLC, 17.7 µM; with NCI-H23 lung, 17.9 µM; in the assay on OVCAR-8 ovarian, 14.2 µM; in the assay on SF-295 CNS, 19.4 µM; in the assay on SK-MEL-2 melanoma, 15.8 µM. For the same compound, the values for the GI50 in the assay on SNB-75 CNS, in the assay with SW-620 colon and in the assay on U251 CNS were greater than 63.8 µM, 15.2 µM and 14.8 µM, respectively. Also, the TGI turned out to be 31.8 µM in the assay on CCRF-CEM leukemia; 33.1 µM in the assay on HOP-92 NSCLC; 35 µM in the assay on NCI-H23 lung; 20.4 µM in the assay with OVCAR-8 ovarian; 34.7 µM with SF-295 CNS; 29.6 µM with SK-MEL-2 melanoma. Besides, the TGI with SNB-75 CNS is greater than 86.7 µM; in the assay on SW-620 colon, 29.2 µM; with U251 CNS, 29.8 µM.

With `CN(C)c1ccc(/C=C2\Oc3cc(O)ccc3C2=O)cc1`, the TGI in the assay with CCRF-CEM leukemia, in the assay with NCI-H23 lung, in the assay on NCI-H522 lung, in the assay with OVCAR-8 ovarian, with SF-295 CNS and in the assay with SNB-75 CNS was greater than 100 µM throughout. In addition, the TGI with SW-620 colon and with U251 CNS was greater than 100 µM each time.

For `COc1cc(C2c3cc4c(cc3[C@@H](Nc3ccc(C(=O)O)cc3)C3COC(=O)[C@H]23)OCO4)cc(OC)c1O` (some centres not stated), the TGI is 15.1 µM and 8.82 µM in the assay with CCRF-CEM leukemia; 18.5 µM and > 17.5 µM with HOP-92 NSCLC; 31.1 µM and > 17.5 µM with NCI-H23 lung; 54 µM and > 17.5 µM in the assay with OVCAR-8 ovarian; greater than 100 µM in the assay on SF-295 CNS; 75.3 µM and > 17.5 µM with SK-MEL-2 melanoma. Also, the TGI was 27.6 µM and > 17.5 µM in the assay with SNB-75 CNS; 62.4 µM and > 17.5 µM in the assay on SW-620 colon; 53 µM and > 17.5 µM in the assay on U251 CNS. For the same compound, the GI50 was 11.9 µM and 3.89 µM in the assay with SW-620 colon; 12.6 µM and 6.13 µM in the assay with U251 CNS.

With `CCN(CC)CCCCC1CCN(CC(=O)N2CC(C)C(=O)Nc3ccccc32)CC1` (configuration not stated), the TGI in the assay on CCRF-CEM leukemia, in the assay with HOP-92 NSCLC, in the assay with NCI-H23 lung, in the assay on SF-295 CNS, in the assay with SW-620 colon and in the assay on U251 CNS was greater than 100 µM throughout.

For `Cc1cc2nc3c(C(OC4OC(CO)C(O)C(O)C4O)C(O)CO)nn(-c4ccccc4)c3nc2cc1C` (configuration not stated), the TGI in the assay on CCRF-CEM leukemia, with NCI-H23 lung, with NCI-H522 lung, with OVCAR-8 ovarian, in the assay on SF-295 CNS and in the assay on SNB-75 CNS was greater than 100 µM throughout. The TGI with U251 CNS is greater than 100 µM.

Consider `COC(=O)c1c(-c2ccccc2)cc2c3cc(-c4ccccc4)c(C(=O)OC)n3c3ccccc3n12`, for which the TGI in the assay on CCRF-CEM leukemia, with NCI-H23 lung, with NCI-H522 lung, with OVCAR-8 ovarian, in the assay on SF-295 CNS and in the assay with SK-MEL-2 melanoma was greater than 100 µM each time. Besides, the results for the TGI in the assay on SNB-75 CNS, in the assay with SW-620 colon and in the assay with U251 CNS were 91.6 µM, greater than 100 µM and greater than 100 µM, respectively.

Consider `C=CCCCCCCCCCCCC1CCC(CC)N1` (configuration not stated), for which the TGI in the assay on CCRF-CEM leukemia came to 29 µM; in the assay on NCI-H23 lung, 28.6 µM; in the assay with NCI-H522 lung it was 13.5 µM; in the assay on SF-295 CNS, 27.8 µM; with SK-MEL-2 melanoma, 29.5 µM; with SNB-75 CNS it was 33.9 µM. Besides, the TGI in the assay on SW-620 colon came to 24.6 µM; with U251 CNS, 25.5 µM.

As to `Cc1cc2c(CC(=O)O)[nH]nc2c(C(=O)O)c1C`, the TGI in the assay with CCRF-CEM leukemia, with HOP-92 NSCLC, in the assay with NCI-H23 lung, in the assay on OVCAR-8 ovarian, with SF-295 CNS and in the assay on SK-MEL-2 melanoma was greater than 100 µM in each case. Besides, the TGI with SNB-75 CNS, in the assay on SW-620 colon and with U251 CNS was greater than 100 µM each time.

On to `Cc1nc2ccc(C(F)(F)F)cc2nc1Nc1ccc(Cl)c(Cl)c1`, for which the TGI in the assay on CCRF-CEM leukemia came to 26.7 µM; in the assay with HOP-92 NSCLC it was 12.1 µM; in the assay with NCI-H23 lung, 26.4 µM; in the assay on OVCAR-8 ovarian, 25.4 µM; in the assay with SF-295 CNS it was 11.8 µM; in the assay with SK-MEL-2 melanoma, 30.2 µM. The TGI is 28.3 µM with SW-620 colon and 19.4 µM in the assay with U251 CNS.

Turning to `O=c1cc(-c2ccccc2)[nH]c2cccc(S)c12`, the TGI with CCRF-CEM leukemia is greater than 100 µM; with HOP-92 NSCLC it was greater than 100 µM; with NCI-H23 lung, greater than 100 µM; in the assay on OVCAR-8 ovarian, 2.37 µM; with SF-295 CNS it was 0.389 µM; in the assay on SW-620 colon, greater than 100 µM. Further, the TGI in the assay on U251 CNS was determined as 11.4 µM.
